Test results: patent publication US9956201B2, “Compositions comprising bioreversible derivatives of hydroxy N-substituted-2-aminotetralins, and related dosage forms” (Spriaso LLC, priority 2014, dated 2018)

Key:
[1] = cited from earlier work
[2] = Apparent lipophilicity log D at pH 7.4 (octanol / pH 7.4 surfactant free buffer); format: physicochemical
Source text: The log DpH=7.4 value is a log of the distribution efficiency (ratio of concentrations of the disclosed bioreversible derivatives in octanol solvent to a pH 7.4 aqueous surfactant free buffer media).
TABLE 5 summarized the intrinsic lipophilicity and apparent lipophilicity of hydroxy N-substituted-2-aminotetralins in comparison with those of some examples of the corresponding bioreversible derivatives according to the disclosure.

[3] = Pharmacokinetics of dosage forms at varied doses of Composition 1c-10 containing caprate ester A10; format: in vivo; details: serum rotigotine, human, oral, Composition 1c-10 with A10
Procedure: Serial blood samples were drawn at predetermined time (e.g., t=0, 12, 24, etc.) and analyzed for rotigotine concentration using a validated HPLC-MS/MS analytical method. The rotigotine Cmax, ratio of rotiogtine peak levels to rotigotine equivalent, Cmax/mg, rotiogotine Cavgt1-t2, rotigotine steady state maximum concentration, Css-max, rotigotine AUCt1-t2 and ratio of rotigotine area under the curve to rotigotine equivalent dose in mg, AUCt1-t2/mg, were calculated in the serum of the subjects. Pharmacokinetic and statistical analyses were performed on the data obtained from the subjects, the pharmacokinetic parameters were defined as follows:
[…] Serial blood samples were drawn for the human subjects at predetermined time (e.g., t=0, 12, 24, etc.) and analyzed to determine pharmacokinetic parameters in the serum of the subjects.

[4] = no method; cited from earlier work
[5] = dose 0.1 mg as rotigotine equivalent
[6] = dose 500 mg as rotigotine equivalent

Row | Apparent Lipophilicity logD7.4 [2] | SMILES | pKa [4] | further results
1 | >4 | CCCCCCCCCC(=O)Oc1cccc2c1CCC(N(CCC)CCc1cccs1)C2 (stereo not drawn) [Compound A10] |  | Mean AUC/mg [3, 5]: <1.25 × 10^−9 hr..^−1; Mean Cmax/mg [3, 5]: <1e-10 mL⁻¹; Mean AUC/mg [3, 6]: >188 × 10^−6 hr..^−1; Mean Cmax/mg [3, 6]: >1.2e-05 mL⁻¹
2 | 6.5-7.5 | CCCCCCCCCCCCCCCC(=O)Oc1cccc2c1CCC(NCCC)C2 (stereo not drawn) [Compound B5] |  | 
3 |  | CCCN(CCC)C1CCc2cccc(O)c2C1 (stereo not drawn) [Compound C1, 8-hydroxy-N,N-dipropyl-2-aminotetralin] | about 10.54 | 
4 |  | CCCN(CCC)C1CCc2ccc(O)cc2C1 (stereo not drawn) [Compound C2, 7-hydroxy-N,N-dipropyl-2-aminotetralin] | about 10.54 | 
5 |  | CCCN(CCC)C1CCc2c(O)cccc2C1 (stereo not drawn) [Compound C3, 5-hydroxy-N,N-dipropyl-2-aminotetralin] | about 10.5 | 
6 | 6.5-7.5 | CCCCCCCCCCCC(=O)Oc1cccc2c1CC(N(CCC)CCC)CC2 (stereo not drawn) [Compound C7, Laurate (C12) Ester of 8-OH-DPAT] |  | 
7 |  | CCCN(CCc1cccs1)[C@H]1CCc2c(O)cccc2C1 [Compound N-0923] |  | bioavailability after oral administration ([1]; animal model): about 0.5%

Row | SMILES | Apparent Lipophilicity logD7.4 [2] | pKa [4] | further results
8 | CCCN(CCc1cccs1)[C@H]1CCc2c(O)cccc2C1 [Compound A1, (S)-6-[propyl(2-thiophen-2-ylethyl)amino]-5,6,7,8-tetrahydronaphthalen-1-ol] | 1-1.9 |  | activity upon oral administration ([1]; preclinical data): zero to limited activity
9 | CCCN[C@H]1CCc2c(O)cccc2C1 [Compound B1, (6S)-(−)-5-hydroxy-N-propyl-2-aminotetralin] | −0.5 | about 10.6 | 
